Test results as given in the NIST ThermoML archive (doi:10.1016/j.jct.2016.08.005).
Numbers after ± are expanded uncertainties.

Conditions: Liquid, Vibrating tube method

Cc1cccs1 [2-methylthiophene]
mass density [kg/m3]
Conditions	313.15 K	318.15 K	323.15 K	328.15 K	333.15 K	338.15 K
100 kPa	998.5 ± 0.52	993.03 ± 0.52	987.55 ± 0.52	982.01 ± 0.52	976.49 ± 0.52	970.87 ± 0.52
2000 kPa	1000.23 ± 0.52	994.81 ± 0.52	989.38 ± 0.52	983.93 ± 0.52	978.46 ± 0.52	972.92 ± 0.52
5000 kPa	1002.93 ± 0.52	997.59 ± 0.52	992.24 ± 0.52	986.87 ± 0.52	981.49 ± 0.52	976.06 ± 0.52
7000 kPa	1004.7 ± 0.52	999.4 ± 0.52	994.11 ± 0.52	988.79 ± 0.52	983.47 ± 0.52	978.09 ± 0.52
10000 kPa	1007.28 ± 0.52	1002.05 ± 0.52	996.84 ± 0.52	991.61 ± 0.52	986.36 ± 0.52	981.08 ± 0.52
15000 kPa	1011.45 ± 0.52	1006.33 ± 0.52	1001.25 ± 0.52	996.12 ± 0.52	991.02 ± 0.52	985.87 ± 0.52
20000 kPa	1015.45 ± 0.53	1010.45 ± 0.52	1005.47 ± 0.52	1000.47 ± 0.52	995.46 ± 0.52	990.45 ± 0.52
25000 kPa	1019.32 ± 0.53	1014.42 ± 0.53	1009.52 ± 0.52	1004.64 ± 0.52	999.74 ± 0.52	994.85 ± 0.52
30000 kPa	1023.04 ± 0.53	1018.23 ± 0.53	1013.45 ± 0.53	1008.65 ± 0.52	1003.86 ± 0.52	999.06 ± 0.52
35000 kPa	1026.65 ± 0.54	1021.93 ± 0.53	1017.21 ± 0.53	1012.52 ± 0.53	1007.82 ± 0.52	1003.09 ± 0.52
40000 kPa	1030.14 ± 0.54	1025.49 ± 0.54	1020.87 ± 0.53	1016.24 ± 0.53	1011.63 ± 0.53	1007.02 ± 0.52
45000 kPa	1033.52 ± 0.55	1028.94 ± 0.54	1024.41 ± 0.54	1019.86 ± 0.53	1015.34 ± 0.53	1010.79 ± 0.53
50000 kPa	1036.79 ± 0.55	1032.3 ± 0.55	1027.81 ± 0.54	1023.37 ± 0.54	1018.9 ± 0.53	1014.44 ± 0.53
55000 kPa	1039.99 ± 0.56	1035.54 ± 0.55	1031.14 ± 0.55	1026.73 ± 0.54	1022.36 ± 0.54	1017.97 ± 0.53
60000 kPa	1043.07 ± 0.56	1038.69 ± 0.56	1034.36 ± 0.55	1030.01 ± 0.55	1025.71 ± 0.54	1021.38 ± 0.54
65000 kPa	1046.08 ± 0.57	1041.75 ± 0.57	1037.48 ± 0.56	1033.2 ± 0.55	1028.94 ± 0.55	1024.7 ± 0.54
